The values below come from US20200339544A1 (JOINT STOCK COMPANY "BIOCAD", priority 2017, published 2020).

The subject of data set [1] is H1975 (lung adenocarcinoma, DM, L828R/T790M). The data set can be described thus: Antiproliferative activity on H1975 cells (Alamar Blue). Format: cell-based. Conditions: for IC50: Homo sapiens, NCI-H1975, H1975 cells; for SI IC50(A549)/IC50(DM): selectivity index, A549 vs H1975 cells. The method in brief:
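H1975 cells (15*10^3/well) attached 16-18 h in RPMI-1640 with 2% FBS, then exposed to compounds (≤1% DMSO final) for 72 h at 37 °C. Viability by Alamar Blue fluorescence (Ex 540/Em 590 nm) after 3-5 h; IC50 from four-parameter logistic fit.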
For orientation: Resazurin is reduced to fluorescent resorufin, in cell work by metabolically active cells.

In data set [2] the target is T1, DM EGFR (DoubleMutantEGFR, L828R/T790M) (Homo sapiens, UniProt P00533, L858R/T790M).
T1 construct: purchased SignalChem
The data set can be described thus: Inhibition of DM EGFR kinase activity (ADP-Glo). The settings on record: for IC50: inhibition of kinase activity, EGFR DM (L828R/T790M); for SI, IC50(WT)/IC50(DM): selectivity index, kinase EGFR WT vs EGFR DM. Format: biochemical. The method in brief: (§1)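 Recombinant WT or double-mutant EGFR was incubated with a solution of 0.5 mg/mL peptide substrate and 50 μM ATP for 180 minutes at 37° C. Kinase activity was detected by ADP-Glo luminescence. IC50 values came from a four-parameter logistic fit.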
(ADP-Glo turns the ADP formed in a reaction into a luminescent signal.)

Data set [3] in a line: General cytotoxicity on HepG2 cells. Format: cell-based. Conditions: human; general cytotoxicity, HepG2 cells, 72 hours, average of several tests. In outline:
(§2)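 HepG2 cells seeded at 2*10^4 cells per well and compounds added in DMEM with 2% FBS for 72 h at 37 °C. Viability read with Alamar Blue and CC50 derived as for IC50. Therapeutic index taken as HepG2 CC50 over H1975 IC50.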

The test system of a further data set is HepG2 cells. Nature of the data set: General cytotoxicity on HepG2 cells. The settings on record: therapeutic index, CC50 HepG2 / IC50 H1975. It counts as cell-based. The method in brief:
as §2

In data set [4] the test system is A549 (lung adenocarcinoma, WT). The data set can be described thus: Antiproliferative activity on A549 cells (Alamar Blue). Format: cell-based. The settings on record: Homo sapiens, antiproliferative test. The method in brief:
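Cells seeded at 5*10^3/well in RPMI-1640 with 2% FBS, attached 16-18 h at 37° C, then exposed to compounds (≤1% DMSO) for 72 h. Alamar Blue added for 3-5 h; fluorescence read at 540/590 nm. IC50 from four-parameter logistic fit.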

Data set [5] in a line: Enzyme stability in human liver S9 fractions. It counts as in vitro ADME. Conditions: 0.5 mg/mL pooled human liver S9 fractions; 10 μM compound; 37° C.; pH 7.4; read-out: Stability in liver S9 fractions, Clint. In outline: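 Compound at 10 μM was incubated at 37 °C with 0.5 mg/mL pooled human liver S9, 2 mM β-NAD and 4 mM MgCl2 in 0.1 M sodium phosphate, pH 7.4, then quenched with acetonitrile and analysed chromatographically. T½ and CLint were derived from the slope of log peak area versus time.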

Another data set addresses T2, WT EGFR (Wild-Type EGFR) (Homo sapiens, UniProt P00533).
T2 construct: purchased SignalChem
The data set can be described thus: Inhibition of WT EGFR kinase activity (ADP-Glo). It counts as biochemical. In outline:
as §1

[6] abbreviates: average values obtained in several tests, Table 16, read-out: H1975 (DM) IC50.
[7] abbreviates: antiproliferative test, Table 15, read-out: IC50 H1975 (DM).

Read-outs that look alike come from different tables or passages of the source.

With `C=CC(=O)Nc1cc(Nc2nccc(C(=O)c3ccc(N(C)C)cc3)n2)c(OC)cc1N(C)CCN(C)C` [EGFR_3365_73, N-(5-((4-(4-(dimethylamino)benzoyl)pyrimidin-2-yl)amino)-2-((2-(dimethylamino)ethyl) (methyl)amino)-4-methoxyphenyl)acrylamide], the IC50 in data set [1] (setting [6]) turned out to be 0.0095 µM; in data set [1] (setting [7]), 0.0103 µM; in data set [2], 0.00235 µM; in data set [4], 16 µM; against WT EGFR (Wild-Type EGFR), 0.0327 µM. Moreover, in data set [1], the “SI IC50(A549)/IC50(DM)” value is 1678. The “SI, IC50(WT)/IC50(DM)” value in data set [2] turned out to be 13.89. This compound also returned a CC50 at 72 h in data set [3] of 35.6 µM. In addition, the “TI, CC50/IC50” value in the data set on HepG2 cells came out at 3465. Besides, in data set [5], the Intrinsic clearance in human liver S9 fractions at 10 µM was determined as 11.1 µL/min/mg.
Consider `C=CC(=O)Nc1cc(Nc2cc(C(=O)c3ccc(-c4cnn(C)c4)cc3)ccn2)c(OC)cc1N(C)CCN(C)C` [EGFR_3365_85, N-(2-((2-(dimethylamino)ethyl)(methyl)amino)-4-methoxy-5-((4-(4-(1-methyl-1H-pyrazol-4-yl)benzoyl)pyridin-2-yl)amino)phenyl) acrylamide], for which the IC50 in data set [1] (setting [6]) amounted to 0.138 µM; in data set [1] (setting [7]), 0.138 µM; in data set [2], 0.00836 µM; in data set [4], 1.41 µM; on WT EGFR (Wild-Type EGFR), 0.06 µM. Besides, the “SI IC50(A549)/IC50(DM)” value in data set [1] is 10. Further, the “SI, IC50(WT)/IC50(DM)” value in data set [2] is recorded as 7.17. In data set [3], the CC50 at 72 h amounted to 21.2 µM. In addition, the “TI, CC50/IC50” value in the data set on HepG2 cells was found to be 153. Also, the Intrinsic clearance in human liver S9 fractions at 10 µM in data set [5] worked out at 17.8 µL/min/mg.
Take `C=CC(=O)Nc1cc(Nc2nccc(C(=O)c3ccc(N4CCCCC4)cc3)n2)c(OC)cc1N(C)CCN(C)C` [EGFR_3365_90, N-(2-((2-(dimethylamino)ethyl)(methyl)amino)-4-methoxy-5-((4-(4-(piperidin-1-yl)benzoyl)pyrimidin-2-yl)amino)phenyl)acrylamide]: the IC50 is 0.005 µM in data set [1] (setting [6]); 0.00758 µM in data set [1] (setting [7]); 0.00075 µM in data set [2]; 5.3 µM in data set [4]; 0.0323 µM on WT EGFR (Wild-Type EGFR). In data set [1], the “SI IC50(A549)/IC50(DM)” value worked out at 1060. The “SI, IC50(WT)/IC50(DM)” value in data set [2] is on record as 43.40. This compound also yielded a CC50 at 72 h in data set [3] of 12.8 µM. Moreover, in the data set with HepG2 cells, the “TI, CC50/IC50” value came to 1689. Further, the Intrinsic clearance in human liver S9 fractions at 10 µM in data set [5] came out at 23.1 µL/min/mg.
`C=CC(=O)Nc1cc(Nc2nccc(C(=O)c3ccc(OC)cc3OCCC)n2)c(OC)cc1N(C)CCN(C)C` [EGFR_3365_102, N-(2-((2-(dimethylamino)ethyl)(methyl)amino)-4-methoxy-5-((4-(4-methoxy-2-propoxybenzoyl)pyrimidin-2-yl)amino)phenyl)acrylamide]: the IC50 in data set [1] (setting [6]) is 0.0805 µM; in data set [1] (setting [7]), 0.0805 µM; in data set [2], 0.0112 µM; in data set [4] it was 5.57 µM; against WT EGFR (Wild-Type EGFR), 0.206 µM. In addition, the “SI IC50(A549)/IC50(DM)” value in data set [1] was 69. Besides, the “SI, IC50(WT)/IC50(DM)” value in data set [2] turned out to be 18.40. The compound also came in with a CC50 at 72 h in data set [3] of 27.5 µM. In the data set on HepG2 cells, the “TI, CC50/IC50” value is reported as 342. In data set [5], the Intrinsic clearance in human liver S9 fractions at 10 µM was 21.9 µL/min/mg.
As for `C=CC(=O)Nc1cc(Nc2nccc(C(=O)c3ccc(N4CCC(N)CC4)cc3)n2)c(OC)cc1N(C)CCN(C)C` [EGFR_3365_121, N-(5-((4-(4-(4-aminopiperidin-1-yl)benzoyl)pyrimidin-2-yl)amino)-2-((2-(dimethylamino)ethyl)(methyl)amino)-4-methoxyphenyl)acrylamide], the IC50 in data set [1] (setting [6]) came out at 0.00421 µM; in data set [1] (setting [7]), 0.00421 µM; in data set [2], 0.00089 µM; in data set [4], 8.35 µM; against WT EGFR (Wild-Type EGFR), 0.0216 µM. Moreover, the “SI IC50(A549)/IC50(DM)” value in data set [1] is recorded as 1983. In data set [2], the “SI, IC50(WT)/IC50(DM)” value turned out to be 24.30. This compound showed a CC50 at 72 h in data set [3] of 75.1 µM. The “TI, CC50/IC50” value with HepG2 cells is given as 17832. For the same compound, in data set [5], the Intrinsic clearance in human liver S9 fractions at 10 µM came to 1.4 µL/min/mg.

What is called IC50 is the midpoint of a concentration-inhibition curve. The term CC50 denotes the concentration giving 50% cytotoxicity. High values mean better tolerance by the cells, low ones harm at low concentration.
